Data taken from patent US4931462A, “Heterocyclic substituted alkylsulphonamides pharmaceutical compositions containing them, and arterial disease treatment therewith” (Boehringer Mannheim GmbH, priority 1987, dated 1990).

Columns and labels:
[1] = tested on: thrombocyte aggregation (TX antagonistic effect); experiment: TX antagonistic effect: inhibition of U 46619-induced thrombocyte aggregation in platelet-rich plasma of healthy blood donors (Born and Cross); type: cell-based; conditions: Erythrocyte, 5 min; U 46619-induced aggregation, human platelet-rich plasma, citrate, followed over 5 minutes; read-out: Human Erythrocytes IC50
From the text: 1. TX Antagonistic Effect of Human Erythrocytes
The thrombocyte aggregation is investigated by the method of Born and Cross (J. Physiol. 168, 178 (1963) in platelet-rich plasma of healthy blood donors. To inhibit clotting, the blood is mixed with 3.2% citrate in a ratio by volume of 1:9.
To induce thrombocyte aggregation, U 46619 (Upjohn & Co., Kalamazoo, U.S.A.), which is a stable analog of the prostaglandin endoperoxide […], is used. U 46619 was characterized as a selective thromboxane mimetic (Coleman et al., Brit. J. Pharmacol. 68, 127 P., 1980).
The aggregation test is carried out in a 4-channel aggregometer (Profiler® of the Bio/Data Co., U.S.A.). The course of the aggregation is followed over a period of 5 minutes. At the end of the test, the degree of aggregation attained is printed out. These values, which are obtained in the presence of different concentrations of the substance to be tested, are used for the determination of the EC50 for the TX antagonistic effect. The effectiveness varies inversely with the EC50 value.

[2] = tested on: U 46619-induced pulmonary embolism; experiment: Preventing the U 46619-induced pulmonary embolism (survival rate of mouse); type: in vivo, mouse (male NMRI); conditions: lethal U 46619 (800-1000 μg/kg) into tail vein after 4 hours, survivors/animals used; for Survival Rate of Mouse 25 mg/kg, 4 h: 25 mg/kg by stomach tube in 1% methylcellulose; for Survival Rate of Mouse 1 mg/kg, 4 h: 1 mg/kg by stomach tube in 1% methylcellulose
Description: 2. Preventing the U 46619-Induced Pulmonary Embolism
Male NMRI mice, with a body weight of 25 g. are used. The test substance is suspended in 1% methylcellulose and administered to the experimental animals with the help of a stomach tube. The provocation test consists of injecting the lethal dose (800-1000 μg/kg) of the thromboxane mimetic (U 46619 of the Upjohn Co.) rapidly into the tail vein. The duration of the specific antagonistic effect is tested by pretreating the animals with 25 mg or 1 mg/kg of the different test substances and injecting U 46619 after 4 hours. The survival rate indicates how many of the animals used have survived the injection of the thromboxane mimetic.

| Structure (SMILES) | IC50 [1] | Survival Rate of Mouse 25 mg/kg, 4 h [2] | Survival Rate of Mouse 1 mg/kg, 4 h [2] |
| --- | --- | --- | --- |
| Cc1ccc(S(=O)(=O)NCCc2ccc3oc(C(=O)O)cc3c2)cc1 [12 b] | 1600 nM | 4/5 |  |
| O=C(O)c1cc2cc(CCNS(=O)(=O)c3ccc(Br)cc3)ccc2o1 [12 e] | 2700 nM | 5/5 |  |
| Cc1c(C(=O)O)oc2ccc(CCNS(=O)(=O)c3ccc(Cl)cc3)cc12 [12 g] | 1700 nM | 5/5 |  |
| O=C(O)c1cc2cc(CCNS(=O)(=O)c3ccc(Cl)cc3)ccc2[nH]1 [12 l] | 1400 nM |  | 2/5 |
| O=C(O)COc1ccc(CCNS(=O)(=O)c2ccccc2)cc1 [Comparison Compound, 4-[2-(benzenesulfonylamino)-ethyl]-7-phenoxyacetic acid, reference compound] | 1850 nM | 2/2 |  |
| O=C(O)c1cc2cc(CCNS(=O)(=O)c3ccc(Cl)cc3)ccc2o1 [Example 11, 5-[2-(4-Chlorobenzenesulphonamido)-ethyl]-benzo[b]-furan-2-carboxylic acid] | 750 nM | 10/10 | 4/5 |
| O=C(O)C1Cc2cc(CCNS(=O)(=O)c3ccccc3)ccc2O1 (stereo not drawn) [Example 13, 5-(2-Benzenesulphonamidoethyl)-2,3-dihydrobenzo[b]furan-2-carboxylic acid] | 1200 nM | 5/5 |  |
